Measurements published in patent US20220133642A1, “TOPICAL FILM-FORMING SPRAY” (GRACE THERAPEUTICS INC., priority 2015, published 2022).
Counter-ions that a name gives are not always drawn.

Assay: Solubility study for drug saturation in spray vehicle
Type: physicochemical
Settings: 16 mg of drug; after standing
Experimental: Solubility studies to find out concentration at which the drug is present at saturation levels were performed as follows: The drug (bupivacaine hydrochloride 2, 4, 8, 10, 12 & 16 mg) was added to, propylene glycol, oleyl alcohol and menthol in ethanol under stirring and mixing till clear solution is formed. The film-forming polymer in the clear drug solution was added while stirring till polymer dissolves or hydrates completely.

In the case of `CCCCN1CCCCC1C(=O)Nc1c(C)cccc1C` (stereo not shown) [bupivacaine hydrochloride], the “appearance of drug solution” value is reported as “precipitated out from clear solution after standing”.
